Target: T1, myelin-associated glycoprotein (MAG) (Rattus norvegicus, UniProt P07722)
T1 sequence (P07722 20-626): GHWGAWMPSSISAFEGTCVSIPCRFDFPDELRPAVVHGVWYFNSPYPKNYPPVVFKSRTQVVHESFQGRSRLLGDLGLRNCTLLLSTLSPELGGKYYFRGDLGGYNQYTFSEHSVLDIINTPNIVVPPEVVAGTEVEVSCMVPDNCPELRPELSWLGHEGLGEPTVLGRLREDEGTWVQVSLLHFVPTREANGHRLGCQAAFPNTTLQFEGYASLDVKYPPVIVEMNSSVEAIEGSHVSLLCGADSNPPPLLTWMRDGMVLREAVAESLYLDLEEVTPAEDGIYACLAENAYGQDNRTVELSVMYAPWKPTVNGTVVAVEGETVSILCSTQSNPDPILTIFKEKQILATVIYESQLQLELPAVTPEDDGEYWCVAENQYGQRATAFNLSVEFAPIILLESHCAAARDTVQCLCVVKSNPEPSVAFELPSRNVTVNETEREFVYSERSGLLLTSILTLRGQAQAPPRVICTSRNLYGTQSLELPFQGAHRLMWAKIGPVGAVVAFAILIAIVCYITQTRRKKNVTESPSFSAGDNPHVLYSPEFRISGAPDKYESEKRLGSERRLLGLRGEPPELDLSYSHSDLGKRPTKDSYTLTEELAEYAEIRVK
Experiment: Adherence of MAG-transfected COS cells to microwell surfaces on which gangliosides/glycolipids were adsorbed (LDH activity)
Conditions: for adhesion of MAG-transfected cells after neuraminidase treatment of the absorbed ganglioside: Vibrio cholerae neuraminidase-treated microwells; for MAG-transfected COS cells added that adhered: ganglioside-absorbed wells; for support of MAG-mediated cell adhesion: structure-function comparison, FIGS. 1C and 2

## NeuAc α2,3 Gal β1,3GalNAc β1,4(NeuAc α2,8 NeuAc α2,3) Gal β1, 4 Glc β1,1'Ceramide [GT1b]
  adhesion of MAG-transfected cells after neuraminidase treatment of the absorbed ganglioside: did not support adhesion
  binding compared to GM1b: enhanced binding
  MAG-transfected COS cells added that adhered: 30-40%
  support of MAG-mediated cell adhesion: supported MAG-mediated cell adhesion
Artificial membrane monolayer with phosphatidylcholine and cholesterol, FIG. 1B
  adherence of MAG-transfected COS cells to ganglioside-absorbed surface: adhered in a concentration-dependent manner
control-transfected COS cells, FIG. 1B
  adherence of control-transfected COS cells: did not bind
control-treated (no neuraminidase) microwells, FIG. 1D
  adhesion of MAG-transfected cells to control-treated microwells: supported adhesion

## NeuAc α2,3 Gal β1,3 GalNAc β1,4(NeuAc α2,3)Gal β1, 4Glcβ1,1'Ceramide [GD1a]
  binding compared to GM1b: enhanced binding
  support of MAG-mediated cell adhesion: supported MAG-mediated cell adhesion

## NeuAc α2,3 Gal β1,3(NeuAc α2,6) GalNAc β1,4(NeuAc α2,8 NeuAc α2,3)Gal β1,4Glc β1,1'Ceramide [GQ1bα]
  adhesion of MAG-transfected cells after neuraminidase treatment of the absorbed ganglioside: completely blocked
  MAG-transfected COS cells added that adhered: 70-80%
More potent than GT1b, FIGS. 2 and 3
  potency at supporting MAG-mediated cell adhesion relative to GT1b: 8 fold

Reference: patent publication US5962434A, “Compounds for stimulating nerve growth” (The Johns Hopkins University School of Medicine, priority 1996, dated 1999)
